Measured values published in patent EP3929178B1, “CRYSTAL FORM OF VALNEMULIN HYDROCHLORIDE HYDRATE, PREPARATION METHOD THEREFOR, AND PHARMACEUTICAL COMPOSITION CONTAINING CRYSTAL FORM” (Hubei Longxiang Pharmaceutical Co., Ltd., priority 2019, dated 2020).
Counter-ions that a name gives are not always drawn. Like-named read-outs stand apart in the source and are kept apart here. One block for each molecule: values may come before it.

What was measured:
[1] = Hygroscopicity experiments; format: physicochemical
Source text: (§1) Table 1 Comparative study on stability of valnemulin hydrochloride hydrate, amorphous substance and the comparative crystal form The hydrate crystal and the amorphous substance and the crystal form of patent CN104876841B were compared in terms of bulk density, solubility, ect, as shown in the following table. Table 2 Physicochemical properties comparison of the valnemulin hydrochloride hydrate, the amorphous substance and the Comparative Example

[2] = Influencing factor (stability) experiments on crystal forms under temperature and humidity; format: physicochemical; details: for content before placement: before placement (baseline of the stability study)
Method: Conditions for purity detection by High Performance Liquid Chromatography (HPLC): octadecylsilane-bonded silica gel was used as filler (150 mm×4.6 mm, 3 µm); mobile phase A was phosphate buffer (pH 2.5); mobile phase B was phosphate buffer (pH 2.5)-acetonitrile (25:75); the flow rate was 1.5 ml per minute; the column temperature was 50 °C; and the detection wavelength was 200 nm. Linear gradient elution was performed according to the following table.
Table 1 Comparative study on stability of valnemulin hydrochloride hydrate, amorphous substance and the comparative crystal form

Bulk density comparison = format: physicochemical
Source text: as §1, with “The” for “Table 1 Comparative study on stability of valnemulin hydrochloride hydrate, amorphous substance and the comparative crystal form The”

[3] = Loss on granulation of aqueous solutions of amorphous product; format: physicochemical; details: granulated at 75 °C
Source text: For solid drugs, different solid forms will have an important impact on physical and chemical properties such as stability, solubility, dissolution rate, bulk density and fluidity, resulting in different efficacy and bioavailability during use. Therefore, for solid pharmaceutical products, the development of different solid forms is more conducive to choosing a suitable crystal form according to the characteristics of the pharmaceutical preparation. For valnemulin hydrochloride products, compared with crystalline products, the amorphous products have problems such as poor stability, easy hygroscopicity, poor appearance, poor fluidity, and difficult storage. At the same time, aqueous solutions of amorphous valnemulin hydrochloride products are unstable during preparation process. Experiments have shown that 11.6% loss is caused when granulated at 75 °C. Therefore, there is an urgent need to develop a stable valnemulin hydrochloride crystal product to meet market demand for veterinary drugs. […] There are very few reports on the crystal form of valnemulin hydrochloride and preparation method thereof.

[4] = reported for CN108892629A; cited from earlier work
[5] = 25 °C, 90% relative humidity, placed for 30 days, listed as The crystal form of valnemulin hydrochloride hydrate (Example 1), hydrochloride hydrate
[6] = 40 °C, 75% relative humidity, placed for 30 days, listed as The crystal form of valnemulin hydrochloride hydrate (Example 1), hydrochloride hydrate
[7] = 60 °C, 75% relative humidity, placed for 30 days, listed as The crystal form of valnemulin hydrochloride hydrate (Example 1), hydrochloride hydrate
[8] = 60 °C, placed in normal humidity for 30 days, listed as The crystal form of valnemulin hydrochloride hydrate (Example 1), hydrochloride hydrate
[9] = compared with the original amorphous product
[10] = 40 °C, 75% relative humidity, placed for 30 days
[11] = 60 °C, 75% relative humidity, placed for 30 days
[12] = 25 °C, 90% relative humidity, placed for 30 days, hydrochloride
[13] = 40 °C, 75% relative humidity, placed for 30 days, hydrochloride
[14] = 60 °C, 75% relative humidity, placed for 30 days, hydrochloride
[15] = 60 °C, placed in normal humidity for 30 days, hydrochloride

With or without hygroscopicity [1, 5]: Without hygroscopic ity
With or without hygroscopicity [1, 6]: Without hygroscopic ity
With or without hygroscopicity [1, 7]: Without hygroscopic ity
With or without hygroscopicity [1, 8]: Without
hygroscopicity ([1]; Table 2, listed as The crystal form of valnemulin hydrochloride hydrate (Example 1), hydrochloride hydrate): 0%
hygroscopicity [1, 9]: no hygroscopicity
Appearance change [2, 5]: White solid
Content after placement (%) [2, 5]: 99.23%
Crystal form change [2, 5]: No change
Crystal form change [2, 10]: No change
Appearance change [2, 6]: White solid
Content after placement (%) [2, 6]: 99.20%
Crystal form change [2, 11]: No change
Appearance change [2, 7]: White solid
Content after placement (%) [2, 7]: 98.78%
Appearance change [2, 8]: White solid
Content after placement (%) [2, 8]: 98.47%
Crystal form change [2, 8]: No
content before placement ([2]; hydrochloride hydrate): 99.25%
stability [2, 9]: enhanced stability
stability ([2]; summary in words of Table 1): stable
Bulk density (Bulk density comparison; [9]): large bulk density
Bulk density (Bulk density comparison; listed as The crystal form of valnemulin hydrochloride hydrate (Example 1), hydrochloride hydrate): 0.596 g/mL
Compound: C=C[C@]1(C)C[C@@H](OC(=O)CSC(C)(C)CNC(=O)[C@H](N)C(C)C)[C@]2(C)[C@H](C)CC[C@]3(CCC(=O)[C@H]32)[C@@H](C)[C@@H]1O [Example 1, valnemulin hydrochloride hydrate]

loss when granulated [3]: 11.6%
With or without hygroscopicity [1, 12]: Severe hygroscopic ity
With or without hygroscopicity [1, 13]: Severe hygroscopic ity
With or without hygroscopicity [1, 14]: Severe hygroscopic ity
With or without hygroscopicity [1, 15]: Hygroscopi city
hygroscopicity ([1]; Table 2, hydrochloride): 8.86%
hygroscopicity ([1]; summary in words of Table 1, hydrochloride): absorbed moisture severely
Appearance change [2, 12]: Yellow transparent viscous solid
Content after placement (%) [2, 12]: 94.56%
Appearance change [2, 13]: Yellow transparent viscous solid
Content after placement (%) [2, 13]: 90.82%
Appearance change [2, 14]: Yellow
Content after placement (%) [2, 14]: 86.12%
Appearance change [2, 15]: Yellow solid
Content after placement (%) [2, 15]: 89.18%
content before placement ([2]; listed as valnemulin hydrochloride amorphous substance, hydrochloride): 97.50%
Bulk density (Bulk density comparison; hydrochloride): 0.338 g/mL
Compound: C=C[C@]1(C)C[C@@H](OC(=O)CSC(C)(C)CNC(=O)[C@H](N)C(C)C)[C@]2(C)[C@H](C)CC[C@]3(CCC(=O)[C@H]32)[C@@H](C)[C@@H]1O [The amorphous substance of valnemulin hydrochloride]

With or without hygroscopicity [1, 12]: Slightly
With or without hygroscopicity [1, 13]: Slightly
With or without hygroscopicity [1, 14]: Slightly
With or without hygroscopicity [1, 15]: Slightly
hygroscopicity ([1]; Table 2, hydrochloride): 1.015%
hygroscopicity ([1]; summary in words of Table 1, listed as The crystal form of patent CN104876841B, hydrochloride): slightly hygroscopic
Appearance change [2, 12]: White solid
Content after placement (%) [2, 12]: 99.21%
Crystal form change [2, 12]: Slight change
Crystal form change [2, 10]: No change
Appearance change [2, 13]: White solid
Content after placement (%) [2, 13]: 99.18%
Crystal form change [2, 11]: No change
Appearance change [2, 14]: Light yellow solid
Content after placement (%) [2, 14]: 98.69%
Appearance change [2, 15]: Light yellow solid
Content after placement (%) [2, 15]: 98.39%
Crystal form change [2, 15]: No change
Bulk density (Bulk density comparison; hydrochloride): 0.636 g/mL
Compound: C=C[C@]1(C)C[C@@H](OC(=O)CSC(C)(C)CNC(=O)[C@H](N)C(C)C)[C@]2(C)[C@H](C)CC[C@]3(CCC(=O)[C@H]32)[C@@H](C)[C@@H]1O [The crystal form of Comparative Example, valnemulin hydrochloride]

Compound: C=C[C@]1(C)C[C@@H](OC(=O)CSC(C)(C)CNC(=O)[C@H](N)C(C)C)[C@]2(C)[C@H](C)CC[C@]3(CCC(=O)[C@H]32)[C@@H](C)[C@@H]1O [solvent-free compound, valnemulin hydrochloride]
Bulk density [4]: 0.305 g/mL
